Test results as given in PubChem BioAssay AID248 (DTP/NCI, 2004).
Where “and” joins values, the source holds several entries; their conditions need not be identical. Equal entries are not always repeated. Toxic doses and inconclusive results are not listed.

System: L1210 leukemia ip in BDF1 mice, survival T/C
Assay: NCI In Vivo Anticancer Drug Screen. Data for tumor model L1210 Leukemia (intraperitoneal) in B6D2F1 (BDF1) mice
Settings: endpoint: mean survival time, higher = longer survival
Method in brief: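 Mice bearing the transplanted tumor received compound or vehicle. Survival of the treated group was divided by that of the vehicle-treated control group to give the ratio.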

[1] = dose: 50.0 mg/kg/injection, schedule: Q01DX001 (ip), vehicle: carboxymethylcellulose (CMC)
[2] = dose: 100.0 mg/kg/injection, schedule: Q01DX001 (ip), vehicle: carboxymethylcellulose (CMC)
[3] = dose: 200.0 mg/kg/injection, schedule: Q01DX001 (ip), vehicle: carboxymethylcellulose (CMC)
[4] = dose: 400.0 mg/kg/injection, schedule: Q01DX001 (ip), vehicle: carboxymethylcellulose (CMC)
[5] = dose: 100.0 mg/kg/injection, schedule: Q01DX009 (ip), vehicle: saline with Tween-80
[6] = dose: 200.0 mg/kg/injection, schedule: Q01DX009 (ip), vehicle: saline with Tween-80
[7] = dose: 100.0 mg/kg/injection, schedule: Q01DX009 (ip), vehicle: Klucel (hydroxypropylcellulose) (HPC)
[8] = dose: 100.0 mg/kg/injection, schedule: Q04DX003 (ip), vehicle: saline
[9] = dose: 200.0 mg/kg/injection, schedule: Q01DX009 (ip), vehicle: Klucel (hydroxypropylcellulose) (HPC)
[10] = dose: 200.0 mg/kg/injection, schedule: Q04DX003 (ip), vehicle: saline
[11] = dose: 400.0 mg/kg/injection, schedule: Q01DX009 (ip), vehicle: Klucel (hydroxypropylcellulose) (HPC)
[12] = dose: 400.0 mg/kg/injection, schedule: Q04DX003 (ip), vehicle: saline

In the case of `COCCCNP1(=O)OCC(C)([N+](=O)[O-])CO1` (stereo not drawn), the T/C [1] is reported as 100 % of control, the T/C [2] is reported as 94 % of control and the T/C [3] is reported as 94 % of control. The T/C [4] was 92 % of control.
With `Clc1ccc2c(NCCNC3CCCCC3)ccnc2c1` the T/C (dose: 9.38 mg/kg/injection, schedule: Q01DX001 (ip), vehicle: saline) was 105 % of control, the T/C (dose: 18.75 mg/kg/injection, schedule: Q01DX001 (ip), vehicle: saline) was 100 % of control and the T/C (dose: 37.5 mg/kg/injection, schedule: Q01DX001 (ip), vehicle: saline) was 108 % of control.
For `CCCCN1C(=O)C(c2ccccc2)C2(CCN(C)CC2)C1=O` (stereo not drawn), the T/C (dose: 25.0 mg/kg/injection, schedule: Q01DX001 (ip), vehicle: Klucel (hydroxypropylcellulose) (HPC)) was 93 % of control, the T/C (dose: 50.0 mg/kg/injection, schedule: Q01DX001 (ip), vehicle: Klucel (hydroxypropylcellulose) (HPC)) was 91 % of control and the T/C (dose: 100.0 mg/kg/injection, schedule: Q01DX001 (ip), vehicle: Klucel (hydroxypropylcellulose) (HPC)) was 97 % of control and 98 % of control.
With `c1ccc(-c2cc(-c3ccccc3)[nH]n2)cc1` the T/C (dose: 100.0 mg/kg/injection, schedule: Q04DX003 (ip), vehicle: saline with Tween-80) was 100 % of control, the T/C (dose: 200.0 mg/kg/injection, schedule: Q04DX003 (ip), vehicle: saline with Tween-80) was 110 % of control and the T/C (dose: 400.0 mg/kg/injection, schedule: Q04DX003 (ip), vehicle: saline with Tween-80) was 105 % of control.
`O=C(/C=C\c1ccc(Cl)c(Cl)c1)/C=C/c1ccc(Cl)c(Cl)c1` was tested, and the T/C (dose: 100.0 mg/kg/injection, schedule: Q04DX002 (ip), vehicle: saline with Tween-80) was 92 % of control and the T/C (dose: 400.0 mg/kg/injection, schedule: Q04DX002 (ip), vehicle: saline with Tween-80) was 92 % of control.
With `OC(/C(=C(/c1ccccc1)c1ccc(Cl)cc1)c1ccccc1)(c1ccccc1)c1ccccc1` the T/C [5] was 98 % of control, the T/C [6] was 95 % of control and the T/C (dose: 400.0 mg/kg/injection, schedule: Q01DX009 (ip), vehicle: saline with Tween-80) was 98 % of control.
`CCOC(=O)Oc1ccc(OC)cc1` was tested, and the T/C [7] was 111 % of control, the T/C [8] was 98 % of control and the T/C [9] was 96 % of control. The T/C [10] was 112 % of control, the T/C [11] was 96 % of control and the T/C [12] was 124 % of control.
`Nc1cc(Br)cc2[nH]c(=O)c3cc(Br)ccc3c12` was tested, and the T/C [2] was 100 % of control, the T/C [3] was 100 % of control and the T/C [4] was 102 % of control.
For `Cc1cc(C(=O)O)c2c([nH]1)c(C)cc1nc3ccccc3c12`, the T/C [1] was 101 % of control, the T/C [2] was 101 % of control and the T/C [3] was 108 % of control. The T/C [4] was 95 % of control.
`CC1(C)C=C(C(Br)c2cccc(Br)c2)C(=O)c2ccccc21` (stereo not drawn) was tested, and the T/C [7] was 101 % of control, the T/C (dose: 100.0 mg/kg/injection, schedule: Q04DX003 (ip), vehicle: Klucel (hydroxypropylcellulose) (HPC)) was 97 % of control and the T/C [9] was 100 % of control. For the same molecule, the T/C (dose: 200.0 mg/kg/injection, schedule: Q04DX003 (ip), vehicle: Klucel (hydroxypropylcellulose) (HPC)) was 95 % of control, the T/C [11] was 102 % of control and the T/C (dose: 400.0 mg/kg/injection, schedule: Q04DX003 (ip), vehicle: Klucel (hydroxypropylcellulose) (HPC)) was 103 % of control.
In the case of `O=C(Oc1ccccc1[N+](=O)[O-])c1ccccc1`, the T/C (dose: 100.0 mg/kg/injection, schedule: Q04DX003 (ip), vehicle: other) is reported as 98 % of control, the T/C (dose: 200.0 mg/kg/injection, schedule: Q04DX003 (ip), vehicle: other) is reported as 118 % of control and the T/C (dose: 400.0 mg/kg/injection, schedule: Q04DX003 (ip), vehicle: other) is reported as 93 % of control.
With `CN(C(=S)Nc1ccccc1)c1cc(N2CCCC2)ccn1` the T/C (dose: 100.0 mg/kg/injection, schedule: Q01DX001 (ip), vehicle: saline) was 98 % of control and the T/C (dose: 200.0 mg/kg/injection, schedule: Q01DX001 (ip), vehicle: saline) was 98 % of control.
For `CC[NH-].[Cl][Pt+2][Cl].[NH2-]`, the T/C (dose: 0.37 mg/kg/injection, schedule: Q01DX009 (ip), vehicle: other) was 111 % of control, the T/C (dose: 0.75 mg/kg/injection, schedule: Q01DX001 (ip), vehicle: other) was 107 % of control and the T/C (dose: 0.75 mg/kg/injection, schedule: Q01DX009 (ip), vehicle: other) was 114 % of control. For the same molecule, the T/C (dose: 1.5 mg/kg/injection, schedule: Q01DX001 (ip), vehicle: other) was 111 % of control, the T/C (dose: 3.0 mg/kg/injection, schedule: Q01DX001 (ip), vehicle: other) was 114 % of control and the T/C (dose: 3.0 mg/kg/injection, schedule: Q01DX009 (ip), vehicle: other) was 157 % of control.
In the case of `CC1CCCC(C[N+](C)(C)C)C1=O` (stereo not drawn), the T/C [8] is reported as 93 % of control and the T/C [10] is reported as 101 % of control.
`CC(=O)Oc1ccc2c(c1)C(=O)CCCC2` was tested, and the T/C (dose: 50.0 mg/kg/injection, schedule: Q01DX009 (ip), vehicle: saline with Tween-80) was 88 % of control, the T/C [5] was 88 % of control and the T/C [6] was 88 % of control.
`COc1cc(N(CCCl)CCCl)c(OC)cc1/C=N\Nc1nncn1N` was tested, and the T/C (dose: 1.2 mg/kg/injection, schedule: Q01DX015 (ip), vehicle: carboxymethylcellulose (CMC)) was 109 % of control, the T/C (dose: 1.4 mg/kg/injection, schedule: Q01DX015 (ip), vehicle: carboxymethylcellulose (CMC)) was 105 % of control and the T/C (dose: 2.2 mg/kg/injection, schedule: Q01DX015 (ip), vehicle: carboxymethylcellulose (CMC)) was 107 % of control. The T/C (dose: 2.5 mg/kg/injection, schedule: Q01DX015 (ip), vehicle: carboxymethylcellulose (CMC)) was 109 % of control, the T/C (dose: 3.3 mg/kg/injection, schedule: Q01DX015 (ip), vehicle: carboxymethylcellulose (CMC)) was 110 % of control and the T/C (dose: 15.0 mg/kg/injection, schedule: Q01DX015 (ip), vehicle: carboxymethylcellulose (CMC)) was 96 % of control and 103 % of control. For the same molecule, the T/C (dose: 33.0 mg/kg/injection, schedule: Q01DX001 (ip), vehicle: carboxymethylcellulose (CMC)) was 124 % of control and the T/C [2] was 105 % of control.
In the case of `CCOC(=O)NC(C)(C)CN(C(=O)OCC)C(C)(C)CO`, the T/C [8] is reported as 104 % of control and the T/C [10] is reported as 104 % of control.
For `CC(=O)Oc1ccc2ccnc(/C=N\NC(N)=S)c2c1`, the T/C (dose: 100.0 mg/kg/injection, schedule: Q04DX002 (ip), vehicle: Klucel (hydroxypropylcellulose) (HPC)) was 106 % of control, the T/C (dose: 200.0 mg/kg/injection, schedule: Q04DX002 (ip), vehicle: Klucel (hydroxypropylcellulose) (HPC)) was 98 % of control and the T/C (dose: 400.0 mg/kg/injection, schedule: Q04DX002 (ip), vehicle: Klucel (hydroxypropylcellulose) (HPC)) was 117 % of control.
With `O=C(NCC[N+](=O)[O-])c1ccccc1` the T/C (dose: 50.0 mg/kg/injection, schedule: Q01DX009 (ip), vehicle: saline) was 97 % of control, the T/C (dose: 100.0 mg/kg/injection, schedule: Q01DX009 (ip), vehicle: saline) was 93 % of control and the T/C [8] was 92 % of control. The T/C (dose: 200.0 mg/kg/injection, schedule: Q01DX009 (ip), vehicle: saline) was 95 % of control, the T/C [10] was 96 % of control and the T/C [12] was 100 % of control.
In the case of `CCN(C(=O)Nc1cccc2ccccc12)c1ccccc1C`, the T/C (dose: 100.0 mg/kg/injection, schedule: Q01DX009 (ip), vehicle: gum acacia) is reported as 100 % of control, the T/C (dose: 100.0 mg/kg/injection, schedule: Q04DX003 (ip), vehicle: gum acacia) is reported as 98 % of control and the T/C (dose: 200.0 mg/kg/injection, schedule: Q01DX009 (ip), vehicle: gum acacia) is reported as 96 % of control. The T/C (dose: 200.0 mg/kg/injection, schedule: Q04DX003 (ip), vehicle: gum acacia) was 98 % of control, the T/C (dose: 400.0 mg/kg/injection, schedule: Q01DX009 (ip), vehicle: gum acacia) was 86 % of control and the T/C (dose: 400.0 mg/kg/injection, schedule: Q04DX003 (ip), vehicle: gum acacia) was 96 % of control.
With `CS(=O)c1ncc2cnccn12` (stereo not drawn) the T/C (dose: 25.0 mg/kg/injection, schedule: Q01DX009 (ip), vehicle: water) was 100 % of control, the T/C (dose: 25.0 mg/kg/injection, schedule: Q04DX003 (ip), vehicle: saline) was 107 % of control and the T/C (dose: 50.0 mg/kg/injection, schedule: Q01DX009 (ip), vehicle: water) was 99 % of control. For the same molecule, the T/C (dose: 50.0 mg/kg/injection, schedule: Q04DX003 (ip), vehicle: saline) was 113 % of control, the T/C (dose: 100.0 mg/kg/injection, schedule: Q01DX009 (ip), vehicle: water) was 102 % of control and 103 % of control and the T/C [8] was 107 % of control. The T/C (dose: 100.0 mg/kg/injection, schedule: Q04DX003 (ip), vehicle: water) was 110 % of control and the T/C (dose: 200.0 mg/kg/injection, schedule: Q01DX009 (ip), vehicle: water) was 98 % of control.
`O=C(O)C(CSC(c1ccccc1)(c1ccccc1)c1ccccc1)N=Cc1ccccc1O` (stereo not drawn) was tested, and the T/C (dose: 267.0 mg/kg/injection, schedule: Q01DX001 (ip), vehicle: saline) was 154 % of control and the T/C (dose: 600.0 mg/kg/injection, schedule: Q01DX001 (ip), vehicle: saline) was 154 % of control.
